Experimental data from US20080255111A1, “Tissue Factor Production Inhibitor” (SANKYO COMPANY LIMITED, priority 2004, published 2008).

What follows are compounds tested on tissue factor mRNA in LPS-stimulated mouse peritoneal macrophages (assay: Assay of mouse peritoneal macrophage tissue factor mRNA). Conditions: 6 h, read-out: Expressed Amount of Tissue Factor mRNA.
Format: cell-based
Description: 3 ml of thioglycolate (Sigma Chemical) were administered into the abdominal cavity of male C57BL/6J mice (Charles River) followed 4 days later by intraperitoneal administration of 10 ml of phosphate-buffered saline (hereinafter PBS) containing heparin (Hishiyama Pharmaceutical) at a concentration of 5 U/ml and recovery of intraperitoneal macrophages using a syringe. After centrifuging the recovered macrophages at 1000 rpm and 4° C. for 5 minutes, the supernatant was discarded followed by suspending in RPMI 1640 medium (Gibco Laboratories) containing normal fetal bovine serum (hereinafter FBS) at a concentration of 10%. The macrophages were adjusted to a concentration of 4×10^6 cells/ml, disseminated in 1 ml aliquots in a 12-well plate, and cultured for 3 hours at 37° C. using a CO2 incubator. Subsequently, the cells were washed with PBS, and the medium was replaced with RPMI medium containing lipoprotein-deficient serum (hereinafter LPDS) (Sigma Chemical) at a concentration of 5%. Test compounds dissolved in dimethylsulfoxide (DMSO) at a concentration of 1 μM were added to make a final DMSO concentration of 0.1%, and after warming for 18 hours at 37° C., lipopolysaccharide (hereinafter LPS) (Sigma Chemical) was added to make a concentration of 100 ng/ml. The cells were recovered 6 hours later, RNA was extracted using the Rneasy Mini Kit (Qiagen), and after carrying out a reverse transcription reaction using the First-Strand cDNA Synthesis Kit (Amersham Biosciences), the expressed amounts of tissue factor mRNA and cyclophylin mRNA were measured by quantitative RT-PCR (TaqMan, Applied Biosystems 7700 Sequence Detector).
Quantitative RT-PCR for tissue factor was carried out using the aforementioned TF-1 and TF-2 as primers and TF-P as probes, while quantitative PCR for cyclophilin was carried out using the aforementioned Cyl-1 and Cyl-2 as primers and Cyl-P as probes. Both were carried out by warming for 2 minutes at 50° C. and then for 10 minutes at 95° C., followed by 40 warming cycles consisting of warming for 15 seconds at 95° C. and then for 1 minute at 60° C. The expressed amount of tissue factor mRNA was calculated as a relative value of the expressed amount of cyclophilin mRNA. The expressed amounts of tissue factor mRNA resulting from the test compounds at a concentration of 1 μM or 10 μM based on a value of 100 for the expressed amount of tissue factor mRNA in a case of treatment with DMSO at a concentration of […] are shown in Table 7.

| SMILES | mrna remaining at 10 µM |
| --- | --- |
| C[C@H](CCC(=O)N(C)C)[C@H]1CCC2C3CC=C4C[C@@H](O)CC[C@]4(C)C3CC[C@@]21C (stereo partly drawn) [Compound J, N,N-Dimethyl-3β-hydroxycholenamide, reference compound] | 39.3% |

Same assay, conditions: test compound 1 μM, 18 h, then LPS 100 ng/ml for 6 h, relative to cyclophilin mRNA, DMSO treatment = 100, read-out: Expressed Amount of Tissue Factor mRNA

| SMILES | mrna remaining at 1 µM |
| --- | --- |
| O=S(=O)(c1ccccc1)N(CC(F)(F)F)c1ccc(C(O)(C(F)(F)F)C(F)(F)F)cc1 [Compound A, N-(2,2,2-Trifluoroethyl)-N-{4-[2,2,2-trifluoro-1-hydroxy-1-(trifluoromethyl)ethyl]phenyl}benzenesulfonamide, reference compound] | 20% |
| O=c1c2cc(OCCO)ccc2nc(Cc2ccccc2)n1-c1ccc(C(O)(C(F)(F)F)C(F)(F)F)cc1 [Compound E, 2-Benzyl-6-(2-hydroxyethoxy)-3-[4-[2,2,2-trifluoro-1-hydroxy-1-(trifluoromethyl)ethyl]phenyl]-4(3H)-quinazolinone] | 37.7% |
| O=c1c2cc(-c3ccccn3)ccc2nc(Cc2ccccc2)n1-c1ccc(C(O)(C(F)(F)F)C(F)(F)F)cc1 [Compound F, 2-Benzyl-6-(2-pyridyl)-3-[4-[2,2,2-trifluoro-1-hydroxy-1-(trifluoromethyl)ethyl]phenyl]-4(3H)-quinazolinone] | 76.9% |
| Cc1cc(C(O)(C(F)(F)F)C(F)(F)F)ccc1-n1c(Cc2cccnc2)nc2ccc(-n3cncn3)cc2c1=O [Compound I, 3-{2-Methyl-4-[2,2,2-trifluoro-1-hydroxy-1-(trifluoromethyl)ethyl]phenyl}-2-(3-pyridylmethyl)-6-(1H-1,2,4-triazol-1-yl)-4(3H)-quinazolinone] | 48.6% |
| CC(=O)N(C)c1ccc(OCc2cc3ccc(F)cc3n2C(=O)OC(C)(C)C)cc1 [Reference Example 3, tert-Butyl 2-({4-[acetyl(methyl)amino]phenoxy}methyl)-6-fluoro-1H-indole-1-carboxylate] | 67.9% |
| CN(C(=S)C1CC1)c1ccc(OCc2cc3c(F)cc(F)cc3n2C(=O)OC(C)(C)C)cc1 [Reference Example 4, tert-Butyl 2-({4-[(cyclopropylcarbonothioyl)(methyl)amino]phenoxy}methyl)-4,6-difluoro-1H-indole-1-carboxylate] | 57.6% |
| CN(C(=O)C1CC1)c1ccc(OCc2ccc(C(F)(F)F)c(O)c2C(=O)OC(C)(C)C)cc1 [Reference Example 5, tert-Butyl 6-({4-[(cyclopropylcarbonyl)(methyl)amino]phenoxy}methyl)-2-hydroxy-3-(trifluoromethyl)benzoate] | 64.3% |
| CN(c1ccc(OCc2ccc(C(F)(F)F)c(O)c2C(=O)OC(C)(C)C)cc1)S(C)(=O)=O [Reference Example 6, tert-Butyl 2-hydroxy-6-({4-[methyl(methylsulfonyl)amino]phenoxy}methyl)-3-(trifluoromethyl)benzoate] | 62.8% |
| CCc1ccc(COc2ccc(N(C)C(C)=O)cc2)c(C(=O)OC(C)(C)C)c1O [Reference Example 7, tert-Butyl 6-({4-[acetyl(methyl)amino]phenoxy}methyl)-3-ethyl-2-hydroxybenzoate] | 68% |
| CN(C(=O)CC1CC1)c1ccc(OCc2ccc(C(F)(F)F)c(O)c2C(=O)OC(C)(C)C)cc1 [Reference Example 8, tert-Butyl 6-({4-[(cyclopropylacetyl) (methyl)amino]phenoxy}methyl)-2-hydroxy-3-(trifluoromethyl)benzoate] | 51.8% |
| CC(C)(C)OC(=O)n1c(COc2ccc(-c3ccc(CC(=O)O)cc3)cc2)cc2ccc(F)cc21 [Reference Example 9, (4′-{[1-(tert-Butoxycarbonyl)-6-fluoro-1H-indol-2-yl]methoxy}-1,1′-biphenyl-4-yl)acetic acid] | 66% |
| CC(C)(C)OC(=O)n1c(COc2ccc(-c3ccc(CC(=O)O)c(Cl)c3)cc2)cc2ccc(F)cc21 [Reference Example 10, (4′-([1-(tert-Butoxycarbonyl)-6-fluoro-1H-indol-2-yl]methoxy)-3-chloro-1,1′-biphenyl-4-yl)acetic acid] | 68.9% |
| CC(C)(C)OC(=O)n1c(COc2ccc(-c3ccc(CC(=O)O)s3)cc2)cc2ccc(F)cc21 [Reference Example 11, [5-(4-{[1-(tert-Butoxycarbonyl)-6-fluoro-1H-indol-2-yl]methoxy}phenyl)-2-thienyl]acetic acid] | 61.1% |
| CC(C)(C)OC(=O)n1c(COc2ccc(-c3ccc(CC(=O)O)cc3Cl)cc2)cc2ccc(F)cc21 [Reference Example 12, (4′-{[1-(tert-Butoxycarbonyl)-6-fluoro-1H-indol-2-yl]methoxy}-2-chloro-1,1′-biphenyl-4-yl)acetic acid] | 54.3% |
| CC(C)(C)OC(=O)c1c(COc2ccc(-c3ccc(CC(=O)O)cc3)cc2)ccc(C(F)(F)F)c1O [Reference Example 13, (4′-{[2-(tert-Butoxycarbonyl)-3-hydroxy-4-(trifluoromethyl)benzyl]oxy}-1,1′-biphenyl-4-yl)acetic acid] | 65.4% |
| CC(C)(C)OC(=O)c1c(COc2ccc(-c3ccc(CC(=O)O)c(Cl)c3)cc2)ccc(C(F)(F)F)c1O [Reference Example 14, (4′-{[2-(tert-Butoxycarbonyl)-3-hydroxy-4-(trifluoromethyl)benzyl]oxy}-3-chloro-1,1′-biphenyl-4-yl)acetic acid] | 61.2% |
| CCc1cc(CC(=O)O)ccc1-c1ccc(OCc2ccc(C(F)(F)F)c(O)c2C(=O)OC(C)(C)C)cc1 [Reference Example 15, (4′-{[2-(tert-Butoxycarbonyl)-3-hydroxy-4-(trifluoromethyl)benzyl]oxy}-2-ethyl-1,1′-biphenyl-4-yl)acetic acid] | 55.5% |
| Cc1c(CC(=O)O)cccc1-c1ccc(OCc2ccc(C(F)(F)F)c(O)c2C(=O)OC(C)(C)C)cc1 [Reference Example 16, (4′-{[2-(tert-Butoxycarbonyl)-3-hydroxy-4-(trifluoromethyl)benzyl]oxy}-2-methyl-1,1′-biphenyl-3-yl)acetic acid] | 65.4% |
| CC(C)c1ccc(COc2ccc(-c3ccc(CC(=O)O)cc3)cc2)c(C(=O)OC(C)(C)C)c1O [Reference Example 18, (4′-{[2-(tert-Butoxycarbonyl)-3-hydroxy-4-isopropylbenzyl]oxy}-1,1′-biphenyl-4-yl)acetic acid] | 56.9% |

Same assay, conditions: test compound 10 μM, 18 h, then LPS 100 ng/ml for 6 h, relative to cyclophilin mRNA, DMSO treatment = 100, read-out: Expressed Amount of Tissue Factor mRNA

| SMILES | mrna remaining at 10 µM |
| --- | --- |
| Cc1ccc(Cc2nc3ccc(-n4ccnc4)cc3c(=O)n2-c2ccc(C(O)(C(F)(F)F)C(F)(F)F)cc2C)cc1 [Compound G, 6-(1H-Imidazol-1-yl)-2-(4-methylbenzyl)-3-{2-methyl-4-[2,2,2-trifluoro-1-hydroxy-1-(trifluoromethyl)ethyl]phenyl}-4(3H)-quinazolinone] | 44.7% |
| COc1cc(-n2c(Cc3ccccc3)nc3cc(N4CCOCC4)c(F)cc3c2=O)ccc1C(O)(C(F)(F)F)C(F)(F)F [Compound H, 2-Benzyl-6-fluoro-3-{3-methoxy-4-[2,2,2-trifluoro-1-hydroxy-1-(trifluoromethyl)ethyl]phenyl}-7-(4-morpholinyl)-4(3H)-quinazolinone] | 56% |
| COc1cc2nc(Cc3ccsc3)n(-c3cc(C(O)(C(F)(F)F)C(F)(F)F)ccc3C)c(=O)c2cc1Cl [Reference Example 1, 6-Chloro-7-methoxy-3-{2-methyl-5-[2,2,2-trifluoro-1-hydroxy-1-(trifluoromethyl)ethyl]phenyl}-2-(3-thienylmethyl)-4(3H)-quinazolinone] | 41.1% |
| COc1cc2nc(Cc3cccc(F)c3)n(-c3cc(C(O)(C(F)(F)F)C(F)(F)F)ccc3C)c(=O)c2cc1OC [Reference Example 2, 2-(3-Fluorobenzyl)-6,7-dimethoxy-3-{2-methyl-5-[2,2,2-trifluoro-1-hydroxy-1-(trifluoromethyl)ethyl]phenyl}-4(3H)-quinazolinone] | 45.2% |
| CC(C)(C)OC(=O)c1c(COc2ccc(-c3ccc(CC(=O)O)cc3)cc2)ccc(F)c1O [Reference Example 19, (4′-{[2-(tert-Butoxycarbonyl)-4-fluoro-3-hydroxybenzyl]oxy}-1,1′-biphenyl-4-yl)acetic acid] | 51.6% |
| CC(C)(C)OC(=O)c1c(COc2ccc(-c3ccc(CC(=O)O)cc3)cc2)ccc(Cl)c1O [Reference Example 20, (4′-{[2-(tert-Butoxycarbonyl)-4-chloro-3-hydroxybenzyl]oxy}-1,1′-biphenyl-4-yl)acetic acid] | 58.1% |
